pEC50: −log10 of the molar value.
How the values were obtained:
Type in all cases: biochemical
procaspase-3 = target: T1, procaspase-3 (Homo sapiens, UniProt P42574); experiment: Executioner procaspase-3 activation assay (Ac-DEVD-AFC fluorogenic substrate); settings: incubation with compound for 5 h at 37° C.; 100 nM procaspase; read-out: Procaspase Activation 3
T1 construct: His6 (C); made in house; host or cells: E. coli BL21(DE3)RP, pET-23b
T1 sequence (P42574 1-277): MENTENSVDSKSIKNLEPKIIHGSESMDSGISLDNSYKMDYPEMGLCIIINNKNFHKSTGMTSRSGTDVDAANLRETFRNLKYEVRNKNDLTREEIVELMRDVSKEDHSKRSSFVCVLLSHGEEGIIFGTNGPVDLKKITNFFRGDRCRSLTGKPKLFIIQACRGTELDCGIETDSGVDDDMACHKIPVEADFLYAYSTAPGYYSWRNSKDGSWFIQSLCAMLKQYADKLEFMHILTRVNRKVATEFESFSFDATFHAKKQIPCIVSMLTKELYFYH
In short: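 Procaspase-3 at 100 nM was incubated with activating compounds (100 nM to 100 uM) in 50 mM HEPES pH 7.4, 50 mM KCl, 1 mM DTT and 0.01% Triton-X100, the detergent limiting aggregation artefacts. Protein, substrate and inhibitor were kept as frozen aliquots and thawed just before use.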

procaspase-6 = target: T2, procaspase-6 (Homo sapiens, UniProt P55212); experiment: Executioner procaspase-6 activation assay (Ac-VEID-AFC fluorogenic substrate); settings: incubation with compound for 5 h at 37° C.; 100 nM procaspase
T2 sequence (P55212 1-293): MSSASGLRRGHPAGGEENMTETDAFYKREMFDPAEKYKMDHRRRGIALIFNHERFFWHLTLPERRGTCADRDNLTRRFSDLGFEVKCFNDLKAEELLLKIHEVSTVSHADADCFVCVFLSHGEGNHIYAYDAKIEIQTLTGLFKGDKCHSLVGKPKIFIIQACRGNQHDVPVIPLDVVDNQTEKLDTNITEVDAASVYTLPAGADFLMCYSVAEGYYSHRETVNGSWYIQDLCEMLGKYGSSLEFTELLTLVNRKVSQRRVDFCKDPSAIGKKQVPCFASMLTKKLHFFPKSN
In short: (§1)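 Procaspase at 100 nM incubated with compound (100 nM–100 μM) in 50 mM HEPES pH 7.4, KCl, DTT, 0.01% Triton X-100, 3% DMSO, 37 °C for 5 h; then 25 μM Ac-DEVD-AFC (procaspase-7) or Ac-VEID-AFC (procaspase-6), kinetic fluorescence 30 min (ex 365/em 495); EC50 reported.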

procaspase-7 = target: T3, procaspase-7 (Homo sapiens, UniProt P55210); experiment: Executioner procaspase-7 activation assay (Ac-DEVD-AFC fluorogenic substrate); settings: incubation with compound for 5 h at 37° C.; 100 nM procaspase
T3 construct: His6 (C); made in house; host or cells: E. coli BL21(DE3)RP, pET-21b
T3 sequence (P55210 1-303): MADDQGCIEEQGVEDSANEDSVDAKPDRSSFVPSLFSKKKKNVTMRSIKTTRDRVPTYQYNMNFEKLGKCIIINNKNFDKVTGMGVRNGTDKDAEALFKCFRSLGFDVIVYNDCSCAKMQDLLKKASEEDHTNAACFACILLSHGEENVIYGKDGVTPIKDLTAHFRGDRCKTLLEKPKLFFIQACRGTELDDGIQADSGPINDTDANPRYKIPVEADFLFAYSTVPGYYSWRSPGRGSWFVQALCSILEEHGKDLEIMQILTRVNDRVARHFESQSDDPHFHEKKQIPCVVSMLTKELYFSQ
In short: as §1

Row | Compound | pEC50 (procaspase-3) | pEC50 (procaspase-6) | pEC50 (procaspase-7)
1 | COc1cccc2cc(C(=O)Nc3cccc(-c4ccc5c(c4)CCO5)c3)c(=O)oc12 [compound 75, 8-Methoxy-2-oxo-2H-chromene-3-carboxylic acid [3-(2,3-dihydro-benzofuran-5-yl)-phenyl]-amide] | < 4.00 | < 4.00 | < 4.00
2 | O=C(Nc1cccc(-c2nc3ccccc3[nH]2)c1)c1cc2cccc(O)c2oc1=O [compound 15, 8-Hydroxy-2-oxo-2H-chromene-3-carboxylic acid [3-(1H-benzoimidazol-2-yl)-phenyl]-amide] | < 4.00 | < 4.00 | < 4.00
3 | COc1ccc(-c2cccc(NC(=O)c3cc4cccc(O)c4oc3=O)c2)cc1 [compound 44, 8-Hydroxy-2-oxo-2H-chromene-3-carboxylic acid (4′-Methoxy-biphenyl-3-yl)-amide] | < 4.00 | < 4.00 | 5.00 to 6.30
4 | COc1ncc(-c2cccc(NC(=O)c3cc4cccc(O)c4oc3=O)c2)cn1 [compound 133, 8-Hydroxy-2-oxo-2H-chromene-3-carboxylic acid [3-(2-methoxy-pyrimidin-5-yl)-phenyl]-amide] | < 4.00 | < 4.00 | < 4.00
5 | COc1cccc2cc(C(=O)Nc3cccc(-c4cc(F)cc(F)c4)c3)c(=O)oc12 [compound 178, 8-Methoxy-2-oxo-2H-chromene-3-carboxylic acid (3′,5′-difluoro-biphenyl-3-yl)-amide] | < 4.00 | 4.30 to 5.00 | < 4.00
6 | O=C(Nc1cccc(-c2cncnc2)c1)c1cc2cccc(O)c2oc1=O [compound 135, 8-Hydroxy-2-oxo-2H-chromene-3-carboxylic acid (3-pyrimidin-5-yl-phenyl)-amide] | < 4.00 | < 4.00 | < 4.00
7 | COc1ccc(-c2cccc(NC(=O)c3cc4cccc(OC(F)(F)F)c4oc3=O)c2)cc1OC [compound 55, 8-Trifluoromethoxy-2-oxo-2H-chromene-3-carboxylic acid (3′,4′-Dimethoxy-biphenyl-3-yl)-amide] | < 4.00 | < 4.00 | < 4.00

Second part, the compound after the results:

Row | pEC50 (procaspase-3) | pEC50 (procaspase-6) | pEC50 (procaspase-7) | Compound
8 | < 4.00 | 5.00 to 6.30 | < 4.00 | COc1cccc2cc(C(=O)Nc3cccc(-c4ccc5occc(=O)c5c4)c3)c(=O)oc12 [compound 162, 8-Methoxy-2-oxo-2H-chromene-3-carboxylic acid [3-(4-oxo-4H-chromen-6-yl)-phenyl]-amide]
9 | < 4.00 | < 4.00 | < 4.00 | COc1ccc(-c2cccc(NC(=O)c3cc4cccc(OC)c4oc3=O)c2)cn1 [compound 130, 8-Methoxy-2-oxo-2H-chromene-3-carboxylic acid [3-(6-methoxy-pyridin-3-yl)-phenyl]-amide]
10 | < 4.00 | < 4.00 | < 4.00 | O=C(Nc1cccc(-c2ccc3c(c2)OCCO3)c1)c1cc2cccc(OC(F)(F)F)c2oc1=O [compound 88, 8-Trifluoromethoxy-2-oxo-2H-chromene-3-carboxylic acid [3-(2,3-dihydro-benzo[1,4]dioxin-6-yl)-phenyl]-amide]
11 | < 4.00 | < 4.00 | < 4.00 | O=C(Nc1cccc(-c2ccc3c(c2)OCO3)c1)c1cc2cccc(OC(F)(F)F)c2oc1=O [compound 64, 8-Trifluoromethoxy-2-oxo-2H-chromene-3-carboxylic acid (3-Benzo[1,3]dioxol-5-yl-phenyl)-amide]

Reference: patent US8642788B2, “Activators of executioner procaspases 3, 6 and 7” (The Regents of the University of California, priority 2008, dated 2014)
